# Source: US20090035345A1, “Nuclear Receptors Agonists for Treatment of Atherosclerosis and/or Related Cardiovascular Disease” (ACADEMISCH MEDISCH CENTRUM, BUREAU, priority 2005, published 2009)
# Key:
# [1] = tested on: SMα-actin, calponin and p27Kip1 protein; experiment: Western blotting of stretched venous SMCs; assay type: cell-based, human; settings: 25 μM 6-MP
# Procedure: Sodium dodecyl sulfate-polyacrylamide gel electrophoresis was performed with cell lysates (30 microg per lane) and concentrated culture media (equivalent of 200 microl per lane). Proteins were transferred to nitrocellulose-Protran (Schleicher and Schuell, 's-Hertogenbosch, The Netherlands).
# Expression of p27^Kip1 (BD Biosciences, Alphen a/d Rijn, The Netherlands), p21^Cip1 (BD), SM alpha-actin (DAKO), PAI-1 (MAI-12; Biopool, Umea, Sweden), TR3 (M-210; Santa Cruz Biotechnology, Santa Cruz, Calif.), calponin (clone hCP; Sigma) and alpha-tubulin (Cedar Lane, Hornby, Ontario, Canada) was studied, using the indicated antibodies directed against these proteins. Primary antibodies were incubated overnight at 4° C. in 5% Protifar plus (Nutricia, Cuijk, The Netherlands) in TBS. As secondary antibodies, horseradish peroxidase-conjugated goat anti-rabbit (for p27^Kip1 and TR3 detection) or goat anti-mouse (for all others) (BioRad 11 Laboratories Inc., Hercules, Calif.) in a dilution of 1:5000 in TBS were used.
# Proteins were visualized by enhanced chemiluminescence detection (Lumi-Light^PLUS; Roche Diagnostics GmbH, Mannheim, Germany). Quantitative analysis was performed by the Lumi-Imager (Boehringer Mannheim, Mannheim, Germany). alpha-Tubulin staining served as a control for loading.
# [2] = tested on: human SMCs; experiment: DNA synthesis assay ([3H]thymidine incorporation) in FBS-stimulated cultured SMCs; assay type: cell-based
# Procedure: Human SMCs were explanted from umbilical cord arteries. Cells were cultured in DMEM (Invitrogen Life Technology, Breda, The Netherlands) with 10% (v/v) fetal bovine serum (FBS) with penicillin and streptomycin (Invitrogen). Cells were used at passages five to seven. […] To determine cellular viability, cells were washed with PBS and subsequently incubated in medium in the presence of 0.5-mg/ml 3-(4,5-dimethylthiazol-2-yl)-2,5-diphenyltetrazolium bromide (MTT; Sigma Diagnostics, St. Louis). After two hours, medium was discarded, formazan crystals were dissolved in isopropanol and optical density was measured at 590 nm. Apoptosis was induced by incubating cells for 24 hours in medium with 0.25 μM staurosporine (Sigma). Subsequently, SMCs were fixed, stained with Hoechst dye and the relative number of apoptotic nuclei was determined.
# SMCs were seeded in 24-well plates at 1−4×10^4 cells per well and reached 60% to 70% confluency after 24 hours. SMCs were made quiescent by incubation for 24 hours in FBS-free medium. 6-MP was dissolved in dimethylsulfoxide and applied one hour before FBS stimulation. SMCs were stimulated for 24 hours with 10% (v/v) FBS and subsequently cells were labeled for 18 hours with 0.25 μCi/well [methyl-3H]thymidine (Amersham Biosciences, Buckinghamshire, UK). Incorporated radioactivity was precipitated for 30 min at 4° C. with 10% (w/v) trichloroacetic acid, washed twice with 5% (w/v) trichloroacetic acid, and dissolved in 0.5 N NaOH (0.5 mL per well). Incorporated [^3H]thymidine was measured by liquid-scintillation counting.
# (§1) The following small interfering (si)RNA sequences were used: Nur77 siRNA, 5′-CAG UCC AGC CAU GCU CCU C dTdT-3′, as described previously^20, and control siRNA, 5′-CAG ACG AGC CUU GCU CGU C dTdT-3′ (Ambion Inc., Austin, Tex.). Five μg of siRNA was transfected into 0.5−1×10^6 SMCs, using Nucleofector reagent for SMCs (Amaxa) as per the manufacturer's recommendations. Total mRNA was isolated five days after transfection, using the absolutely mRNA miniprep kit (Stratagene, La Jolla, Calif.). Subsequent cDNA synthesis was performed using the iScript cDNA synthesis kit (Biorad, Hercules, Calif.). Real-time polymerase chain reaction (PCR) was performed using SYBR green mix (Biorad) in the MyIQ System (Biorad). Primers for Nur77 were as follows: (forward) 5′-[…]-3′ and (reverse) 5′-[…]-3′. As a control for equal amount of first strand cDNA in different samples we corrected for Ribosomal Phosphoprotein (P0) mRNA levels, which were determined with the following primers (forward) 5′-[…]-3′ and (reverse) 5′-[…]-3′.
# as §1, with “iscript” for “iScript”
# [3] = In vitro release from drug-eluting poly(ε-caprolactone) cuffs; assay type: physicochemical; settings: 0.5% and 1% cuffs, 4-week period
# Procedure: Briefly, 6-MP was dissolved at different concentrations in blended, molten drug-polymer mix and cuffs were designed to fit around the femoral artery of mice. Drug-eluting cuffs are shaped as longitudinally cut cylinders with an internal diameter of 0.5 mm, an external diameter of 1.0 mm, a length of 2.0 mm and a weight of approximately 5.0 mg. Drug-eluting cuffs were loaded with 0.5% (w/w) and 1% (w/w) 6-MP and the in vitro release profiles were determined for a 4-week period, as described before (n=5/group).
compound,measurement,setting,value
"Sc1ncnc2nc[nH]c12 [6-MP, 6-mercaptopurine]",SMα-actin and calponin as well as p27Kip1 protein expression,[1],increases
same,DNA synthesis in SMCs,[2]; 25 μM or 50 μM,reduced
same,inhibition of DNA synthesis,[2]; SMCs transfected with Nur77 (TR3)-specific siRNA,41%
same,inhibition of DNA synthesis,[2]; SMCs transfected with control siRNA,61%
same,DNA synthesis in SMCs,"[2]; increasing concentrations, 10% FBS",inhibits DNA synthesis
same,in vitro release profile,[3],sustained and dose-dependent release
